According to patent publication US10046001B2, “Compositions and methods for reducing intraocular pressure” (UNIVERSITY OF MIAMI, priority 2013, dated 2018):

Experiments:
[1] = system: trabecular meshwork (TM) primary cells; test: mobility and cell shape changes of primary TM cells exposed to lipids (time-lapse imaging); type: cell-based, human; conditions: for mobility and cell shape changes for trabecular meshwork (TM) primary cells due to exposure to lipids: 10 pmoles of lipid; for dynamics of filopodia formation: exposure to lipids vs vehicle
Experimental: FIGS. 2A and 2B show representative images of the effect of lipid on trabecular meshwork primary cells. The time lapsed images of cell at indicated time interval. A. The control TM cells were subjected to vehicle (5% DMSO) in phosphate buffered saline. […] A protrusion of filopodia in a cell is indicated by thick arrow head. At 2 minutes after addition of vehicle to 16 minutes, the protrusion remains unchanged. B. TM cells treated with 10 pmoles of lipid. Most cells have protrusions with only a few cells without them. The filopodia in lipid treated cells are dynamic, they undergo dynamic retraction starting at 1 or 2 minutes after addition of lipid in the serum free media, indicated by arrows. At 16 minutes filopodia are largely retracted.
Modulation of cell motility and shape. Compared to controls (vehicle-10% DMSO only treated) shape of primary TM cells (FIG. 2A), exposure to lipids changed the shape of cells promoting filopodia and motility (FIG. 2B). All these lipids promote contraction of filopodia (FIG. 2B, arrows) and well as expansion. These images were derived from time lapsed video imaging of primary TM cells and summary data from several donor derived cells. The exposure to lipids render the cells more dynamic with respect to filopodia formation and their dynamic expansion-contraction (Summarized in Table 1 (FIG. 11)). The motility and filopodia formation is affected by a variety of intrinsic and extrinsic factors such as age of the donors from where cell have been derived, cell density, composition of the medium, environmental temperature and incubation gas composition. The age of the donor and cell density are the most prominent factors.
TM cell culture experiments: Primary human TM cells were cultured from cadaveric corneo-scleral sections. The cells were isolated through a blunt dissection of the area containing and adjacent to the canal of Schlemm, followed by a 2 hour digestion in DPBS (cat #21-030-CV, Mediatech Inc, Manassas, Va.) suspension of 20% 0.01 μg/μL collagenase-A (cat #LS004194, Worthington, Lakewood N.J.). The blunt dissection and the proteolytic treatment were performed inside a 12 well culture plate (cat #665-180 Greiner Bio-One, Neuburg, Germany). Culture media containing [DMEM 1× (cat #10-017-CM, Mediatech Inc), 10% heat inactivated FBS (cat #35-016-CV, Mediatech), 0.5% 1.7 mM L-Glutamine (cat #G6392, Sigma-Aldrich), 1% Antibiotic-Antimycotic Solution (cat #30-004-CL, Mediatech)] was added after 2 hours to terminate digestion. A sterile microscopy slide (cat #56700-194, VMR) was placed on top of the tissue fragment to ensure bottom-contact and immobility inside the media well. The sections were cultured at 37° C. in 5% CO2 inside a cell culture incubator. Culture was washed with 1× DPBS 7 days later to remove tissue debris; media change occurred every 3-4 days. Thus obtained cells were trypsin-treated (cat #25-050-C1, Mediatech) and accordingly distributed the day before the transfection complexes were created using the ratio of 0.4 μg/uL of respective vector DNA to the transfection agent (Lipofectamine 2000, cat #11668-019, Invitrogen), prepared accordingly to the manufacturer's instructions Following addition to respective wells, the transfection reactions were allowed to take place over a 2.5 hour span, after which they were terminated through the addition of cell culture media. Cell assays and immunohistochemical analysis were performed at or within a 24 hour time mark in order to observe and track the effects of vector expression on morphological changes. Time-lapse microscopy was performed using cells grown on glass bottom chamber slides (cat #154534, Lab-Tek, Thermo Fisher Scientific Inc., Rochester N.Y.) and Zeiss AxioVert 200M, for the duration of 20 hours, with a snapshot every 15 minutes, starting at 24 hours post-transfection. Immunohistochemical analysis was performed on cells fixed with 4% PFA (cat #19943, USB Corp, Cleveland, Ohio) at time intervals of 0, 24, and 29 hours post-transfection. […]

[2] = system: primary TM cells embedded in collagen gel; test: collagen gel embedded expansion and/or contraction assay; type: cell-based, human; conditions: 10 pmole lipid, collagen column length at 24 hours
Experimental: About 10,000 primary TM cells were placed in a capillary tube with rat collagen without (control) or after treatment with 10 pmole of indicated lipid. The change in collagen column length was measured at the end of 24 hours. Mean and standard deviation from three independent experiments are presented. As shown by yellow/gray zones, the expansions were categorized into four zones (2, 3 and 4 are identified), 1=[…]; 2=1.0 to 1.4 mm; 3=>1.4 mm but <2.0 mm; 4=2.0 and >2.0 mm.
Properties of cell ensembles in embedded matrix and assembled layer of cells on filter membranes. Gel embedded primary TM cells in collagen matrix in capillary tubes were prepared following established protocols (Ilagan, R. et al. Biotechniques. 2010; 48: 153-5), and their ability within the first 24 hours for expansion or contraction of gels (control) or the cells which were subjected to treatment with lipids for 1 hour in serum free medium prior to gel embedding were determined. Lipids that modulate cell expansion in matrix embedded assay systems (FIG. 3) were found. […] The extent of expansion was divided into four zones 1, 2, 3, and 4 (FIG. 3). The higher the number, the greater is the expansion.
Collagen gel expansion and/or contraction assay: Hydro-gel solution was prepared using 10× MEM (cat #11430, Invitrogen), Sodium Bicarbonate (cat #55761 Sigma-Aldrich), L-Glutamine (Sigma-Aldrich), HEPES (cat #15630, Invitrogen). The following solution was aliquoted in separate tubes for each transfection type. Transfection complexes were prepared in individual tubes containing a mixture of the transfection agent (Lipofectamine 2000, Invitrogen) and desired DNA vectors in a ratio of 0.4 ug/uL, following the manufacturer's preparation guidelines. Trabecular meshwork cells were obtained from a confluent layer of trypsin-treated 25 cm^2 cell culture flask (cat #353109, Becton Dickinson, Franklin Lakes, N.J.) sedimented for 5 minutes at 800 RPM. Cell pellet was then re-suspended in serum free DMEM 1×, (Mediatech) media, thoroughly mixed and finally, equally aliquoted into each respective transfection-complex containing vessel. The reaction was allowed to occur for 45 minutes, after which it was terminated through addition of cell culture media and rat tail collagen (cat #354249, BD, San Jose, Calif.) to initiate gel polymerization. The suspension was gently mixed by aspiration and aspirated into 1 mL single use needle syringe and injected into a borosilicate glass capillary (O.D −1.0 mm, IN.D −0.75 mm) (cat #TW100-6, WPI) to approximately half of its volume. A digital picture snapshot was taken of all capillaries prepared against a blank background with a millimeter scale, repeated at 24 and 48 hours. The hydro-gel containing capillaries were incubated inside a moisture chamber to prevent dehydration in a cell line incubator at 37° C. and 5% CO2. Photographs obtained were analyzed using ImageJ (v.1.43u) measuring between chosen points on the opposite ends of the gel. Amassed length data was statistically analyzed using Microsoft Excel (XP).

| Structure (SMILES) | mobility and cell shape changes for trabecular meshwork (TM) primary cells due to exposure to lipids [1] | gel expansion/contraction of cells in artificial embedment [2] | dynamics of filopodia formation [1] |
| --- | --- | --- | --- |
| CCCCCCCCCCCCCCCCCC(=O)OC[C@@H](O)COP(=O)(O)OC[C@H](N)C(=O)O [PS(18:0/0:0)] | showed an effect | showed an effect | – |
| CCCCCCCCCCCCCC(=O)OC[C@@H](O)COP(=O)(O)OC[C@H](N)C(=O)O [PS(14:0/0:0)] | showed an effect | showed an effect | – |
| CCCCCCCCCCC/C=C/[C@@H](O)[C@H](COP(=O)([O-])OCC[N+](C)(C)C)NC(=O)CCCCCCCCCCCCCCCCCCCCCCCC [SM(d16:1/25:0)] | showed an effect | showed an effect | – |
| CCCCCCCC/C=C\CCCCCCCCCCCCCCCC(=O)N[C@@H](CO)[C@H](O)/C=C/CCCCCCCCCCCCC [Cer(d18:1/26:1(17Z))] | showed an effect | showed an effect | – |
| CCCCC/C=C\C/C=C\C/C=C\C/C=C\CCCC(=O)O[C@H](COC(=O)CCCCCCCCCCCCCCCCC)COP(=O)(O)OC1[C@H](O)[C@H](O)C(O)[C@H](O)[C@H]1O (some centres unmarked) [PI(18:0/20:4)5Z,8Z,11Z,14Z))] | showed an effect | showed an effect | – |
| CCCCCCCCCCCCCC[C@@H](O)[C@@H](N)COP(=O)(O)O [C17 Sphinganine-1-phosphate] | showed an effect | showed an effect | – |
| CCCCCCCCCCCCC(=O)OC[C@H](COP(=O)([O-])OCC[N+](C)(C)C)OC(=O)CCCCCCCCCCCC [PC(13:0/13:0), 1,2-ditridecanoyl-sn-glycero-3-phosphocholine, reference compound] | lack of any effect | lack of any effect | exception |
| CCCCCCCCCCCCCCC[C@@H](O)[C@@H](N)CO [Sphinganine] | showed an effect | showed an effect | – |
| CCCC/C=C\C/C=C\CCCCCCCC(=O)O[C@H](COC(=O)CCCCCCCCCCC)COP(=O)(O)OC1C(O)C(O)C(O)[C@@H](O)C1O (some centres unmarked) [PI(12:0/17:2)9Z,12Z))] | showed an effect | showed an effect | – |
| CCCCCCCC/C=C\CCCCCCCC(=O)N[C@@H](CO)[C@H](O)CCCCCCCCCCCCCCC [Cer(d18:0/18:1(9Z))] | showed an effect | showed an effect | – |
| CCCCCCCCCCCCCCCCCC(=O)OC[C@H](COP(=O)(O)OCCN)OC(=O)CCCCCCCCCCCCCCCCC [PE(18:0/18:0)] | showed an effect | showed an effect | – |
| CCCC/C=C\CCCCCCCC(=O)O[C@H](COC(=O)CCCCCCCCCCC)COP(=O)([O-])OCC[N+](C)(C)C [PC(12:0/14:1(9Z))] | lack of any effect | lack of any effect | exception |
